Data from ChEMBL document CHEMBL4507313, “Data for DCP probe BAY-179” (2021).

Assays:
[1] = molecular target: T1, 5-hydroxytryptamine receptor 2B (Homo sapiens, UniProt P41595); assay: GPCRScan assay: inhibition of 5-HT2B; parameters: radioligand conc. used [nm] 1.0 – 2.0, parental cells stable HEK
[2] = molecular target: 5-hydroxytryptamine receptor 3A (Homo sapiens, UniProt P46098); assay: GPCRScan assay: inhibition of 5-HT3; parameters: radioligand conc. used [nm] 1.0 – 2.0, parental cells HEKT
[3] = molecular target: T2, 5-hydroxytryptamine receptor 6 (Homo sapiens, UniProt P50406); assay: GPCRScan assay: inhibition of 5-HT6; parameters: radioligand conc. used [nm] 2.0 – 4.0, parental cells stable HEK
T2 sequence (P50406 whole entry): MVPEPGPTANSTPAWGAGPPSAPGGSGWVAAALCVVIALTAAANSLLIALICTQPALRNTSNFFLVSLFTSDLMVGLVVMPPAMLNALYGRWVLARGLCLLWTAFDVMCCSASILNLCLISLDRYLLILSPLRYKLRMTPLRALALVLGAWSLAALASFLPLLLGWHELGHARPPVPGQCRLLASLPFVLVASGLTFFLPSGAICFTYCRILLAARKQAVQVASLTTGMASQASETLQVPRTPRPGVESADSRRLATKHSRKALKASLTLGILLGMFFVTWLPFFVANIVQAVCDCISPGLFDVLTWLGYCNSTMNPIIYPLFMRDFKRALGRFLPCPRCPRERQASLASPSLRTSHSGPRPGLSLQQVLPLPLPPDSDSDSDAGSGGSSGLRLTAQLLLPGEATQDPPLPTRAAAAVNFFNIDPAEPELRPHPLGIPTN

[4] = molecular target: Alpha-2C adrenergic receptor (Homo sapiens, UniProt P18825); assay: GPCRScan assay: inhibition of Alpha2C; parameters: radioligand conc. used [nm] 0.5 – 1.0, parental cells stable MDCK
[5] = molecular target: Muscarinic acetylcholine receptor M2 (Homo sapiens, UniProt P08172); assay: GPCRScan assay: inhibition of M2; parameters: radioligand conc. used [nm] 0.2 – 1.0, parental cells stable CHO
Muscarinic acetylcholine receptor M2, sequence (P08172 whole entry): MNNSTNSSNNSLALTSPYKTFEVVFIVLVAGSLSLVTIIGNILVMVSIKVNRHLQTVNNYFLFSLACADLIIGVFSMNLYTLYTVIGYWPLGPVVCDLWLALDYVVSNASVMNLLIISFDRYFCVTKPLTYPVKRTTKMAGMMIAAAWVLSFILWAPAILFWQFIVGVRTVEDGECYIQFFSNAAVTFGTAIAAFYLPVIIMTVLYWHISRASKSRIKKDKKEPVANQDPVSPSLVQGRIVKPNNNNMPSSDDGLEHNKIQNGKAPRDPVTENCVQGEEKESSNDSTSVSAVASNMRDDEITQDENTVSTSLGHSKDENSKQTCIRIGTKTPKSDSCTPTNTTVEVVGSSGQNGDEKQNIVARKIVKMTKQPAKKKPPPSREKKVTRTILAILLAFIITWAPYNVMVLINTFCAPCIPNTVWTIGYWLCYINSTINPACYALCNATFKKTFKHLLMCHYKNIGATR

[6] = molecular target: T3, Sigma intracellular receptor 2 (Homo sapiens, UniProt Q5BJF2); assay: GPCRScan assay: inhibition of Sigma 2; parameters: radioligand conc. used [nm] 5.0, parental cells HEKT
T3 sequence (Q5BJF2 whole entry): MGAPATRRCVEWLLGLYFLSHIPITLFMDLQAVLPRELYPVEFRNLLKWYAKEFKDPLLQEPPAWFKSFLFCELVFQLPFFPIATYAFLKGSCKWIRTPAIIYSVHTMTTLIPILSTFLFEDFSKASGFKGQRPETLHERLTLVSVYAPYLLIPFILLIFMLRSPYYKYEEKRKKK

[7] = molecular target: T4, Sigma non-opioid intracellular receptor 1 (Homo sapiens, UniProt Q99720); assay: GPCRScan assay: inhibition of Sigma 1; parameters: radioligand conc. used [nm] 4.0 – 5.0, parental cells HEKT
T4 sequence (Q99720 whole entry): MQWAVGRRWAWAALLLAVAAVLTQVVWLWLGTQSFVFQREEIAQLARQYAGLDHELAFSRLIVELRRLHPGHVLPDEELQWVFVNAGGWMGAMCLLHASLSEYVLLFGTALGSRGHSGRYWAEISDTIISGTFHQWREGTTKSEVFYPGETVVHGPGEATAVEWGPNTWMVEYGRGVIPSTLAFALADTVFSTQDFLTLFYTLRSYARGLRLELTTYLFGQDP

[8] = BXF135 2 cell line Proliferation assay; format: functional, Homo sapiens; details: Cell line Patient derived
MKN-1 = assay: MKN1 cell line Proliferation assay; format: functional, Homo sapiens
[9] = BXF121 8 cell line Proliferation assay; format: functional, Homo sapiens; details: Cell line Patient derived
LS174T = assay: LS174T cell line Proliferation assay; format: functional, Homo sapiens
[10] = GXF25 1 cell line Proliferation assay; format: functional, Homo sapiens; details: Cell line Patient derived
[11] = LXFA62 9 cell line Proliferation assay; format: functional, Homo sapiens, LXF 629L; details: Cell line Patient derived
BG-1 cell line = assay: BG1 cell line Proliferation assay; format: functional, Homo sapiens
Caco-2 = assay: Caco-2 cell line Proliferation assay; format: functional, Homo sapiens
SK-MEL-28 = assay: SK- MEL-28 cell line Proliferation assay; format: functional, Homo sapiens
RKO = assay: RKO cell line Proliferation assay; format: functional, Homo sapiens
LOX IMVI = assay: LOX cell line Proliferation assay; format: functional, Homo sapiens
[12] = molecular target: 5-hydroxytryptamine receptor 1A (Homo sapiens) (UniProt P08908); details: Compound concentration 10.0 uM
[13] = molecular target: 5-hydroxytryptamine receptor 1B (Homo sapiens) (UniProt P28222); details: Compound concentration 10.0 uM
[14] = molecular target: 5-hydroxytryptamine receptor 1D (Homo sapiens) (UniProt P28221); details: Compound concentration 10.0 uM
5-hydroxytryptamine receptor 1D (Homo sapiens), sequence (P28221 whole entry): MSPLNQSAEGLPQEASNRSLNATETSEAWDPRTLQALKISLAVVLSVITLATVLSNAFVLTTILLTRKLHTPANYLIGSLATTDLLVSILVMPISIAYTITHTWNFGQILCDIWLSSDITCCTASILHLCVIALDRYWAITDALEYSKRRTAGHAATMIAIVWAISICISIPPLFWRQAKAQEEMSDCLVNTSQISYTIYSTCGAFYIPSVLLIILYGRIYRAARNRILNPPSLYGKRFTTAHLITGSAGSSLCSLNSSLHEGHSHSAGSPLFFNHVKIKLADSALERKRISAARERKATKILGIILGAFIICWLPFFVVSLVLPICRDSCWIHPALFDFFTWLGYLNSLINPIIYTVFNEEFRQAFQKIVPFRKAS

[15] = molecular target: 5-hydroxytryptamine receptor 1E (Homo sapiens) (UniProt P28566); details: Compound concentration 10.0 uM
[16] = molecular target: 5-hydroxytryptamine receptor 2A (Homo sapiens) (UniProt P28223); details: Compound concentration 10.0 uM
[17] = molecular target: T1, 5-hydroxytryptamine receptor 2B; details: Compound concentration 10.0 uM
[18] = molecular target: 5-hydroxytryptamine receptor 2C (Homo sapiens) (UniProt P28335); details: Compound concentration 10.0 uM
[19] = molecular target: 5-hydroxytryptamine receptor 3A (Homo sapiens) (UniProt P46098); details: Compound concentration 10.0 uM
[20] = molecular target: 5-hydroxytryptamine receptor 5A (Homo sapiens) (UniProt P47898); details: Compound concentration 10.0 uM
5-hydroxytryptamine receptor 5A (Homo sapiens), sequence (P47898 whole entry): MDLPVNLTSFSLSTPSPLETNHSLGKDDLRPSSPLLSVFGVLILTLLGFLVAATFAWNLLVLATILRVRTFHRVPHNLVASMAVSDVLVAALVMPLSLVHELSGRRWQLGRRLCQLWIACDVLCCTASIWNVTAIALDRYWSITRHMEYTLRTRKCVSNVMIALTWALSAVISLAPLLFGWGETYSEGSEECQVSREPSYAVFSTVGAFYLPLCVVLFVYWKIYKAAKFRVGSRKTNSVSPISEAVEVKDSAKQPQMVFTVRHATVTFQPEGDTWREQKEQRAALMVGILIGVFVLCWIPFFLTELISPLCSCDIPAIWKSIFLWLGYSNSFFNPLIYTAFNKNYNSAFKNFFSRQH

[21] = molecular target: T2, 5-hydroxytryptamine receptor 6; details: Compound concentration 10.0 uM
[22] = molecular target: 5-hydroxytryptamine receptor 7 (Homo sapiens) (UniProt P34969); details: Compound concentration 10.0 uM
[23] = molecular target: D(1A) dopamine receptor (Homo sapiens) (UniProt P21728); details: Compound concentration 10.0 uM
[24] = molecular target: D(2) dopamine receptor (Homo sapiens) (UniProt P14416); details: Compound concentration 10.0 uM
[25] = molecular target: D(3) dopamine receptor (Homo sapiens) (UniProt P35462); details: Compound concentration 10.0 uM
[26] = molecular target: D(4) dopamine receptor (Homo sapiens) (UniProt P21917); details: Compound concentration 10.0 uM
[27] = molecular target: D(1B) dopamine receptor (Homo sapiens) (UniProt P21918); details: Compound concentration 10.0 uM
D(1B) dopamine receptor (Homo sapiens), sequence (P21918 whole entry): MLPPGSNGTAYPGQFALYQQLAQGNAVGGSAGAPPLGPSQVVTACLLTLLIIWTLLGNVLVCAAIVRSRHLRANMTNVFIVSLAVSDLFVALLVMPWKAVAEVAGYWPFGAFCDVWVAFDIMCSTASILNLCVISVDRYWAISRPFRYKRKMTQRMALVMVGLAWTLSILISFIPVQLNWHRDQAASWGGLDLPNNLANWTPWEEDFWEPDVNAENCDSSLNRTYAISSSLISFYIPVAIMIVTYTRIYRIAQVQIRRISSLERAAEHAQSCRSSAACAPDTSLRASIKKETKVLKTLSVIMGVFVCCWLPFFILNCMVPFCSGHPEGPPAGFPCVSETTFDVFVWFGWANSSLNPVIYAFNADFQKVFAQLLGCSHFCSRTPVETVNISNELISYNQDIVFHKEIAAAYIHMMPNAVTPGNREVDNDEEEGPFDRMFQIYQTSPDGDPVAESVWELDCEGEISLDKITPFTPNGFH

[28] = molecular target: Sodium-dependent serotonin transporter (Homo sapiens) (UniProt P31645); details: Compound concentration 10.0 uM
[29] = molecular target: Mu-type opioid receptor (Homo sapiens) (UniProt P35372); details: Compound concentration 10.0 uM
[30] = molecular target: Delta-type opioid receptor (Homo sapiens) (UniProt P41143); details: Compound concentration 10.0 uM
Delta-type opioid receptor (Homo sapiens), sequence (P41143 whole entry): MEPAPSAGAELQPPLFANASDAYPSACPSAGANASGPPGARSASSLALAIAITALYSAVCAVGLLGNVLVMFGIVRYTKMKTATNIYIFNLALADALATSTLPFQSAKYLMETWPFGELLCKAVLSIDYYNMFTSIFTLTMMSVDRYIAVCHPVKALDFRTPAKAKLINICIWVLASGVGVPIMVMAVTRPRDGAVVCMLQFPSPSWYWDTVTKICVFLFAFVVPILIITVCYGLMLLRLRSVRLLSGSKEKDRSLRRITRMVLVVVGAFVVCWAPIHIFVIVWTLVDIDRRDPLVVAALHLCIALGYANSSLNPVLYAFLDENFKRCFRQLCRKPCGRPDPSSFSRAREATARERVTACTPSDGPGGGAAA

[31] = molecular target: Kappa-type opioid receptor (Homo sapiens) (UniProt P41145); details: Compound concentration 10.0 uM
[32] = molecular target: T5, GABA-A receptor; anion channel (Rattus norvegicus) (UniProt O09028+P15431+P18506+P18508+P19969+P20236+P23574+P23576+P28471+P28473+P30191+P62813+P63079+P63138+Q91ZM7+Q9ES14); details: Compound concentration 10.0 uM
[33] = molecular target: Histamine H1 receptor (Homo sapiens) (UniProt P35367); details: Compound concentration 10.0 uM
[34] = molecular target: Histamine H2 receptor (Homo sapiens) (UniProt P25021); details: Compound concentration 10.0 uM
[35] = molecular target: Histamine H3 receptor (Homo sapiens) (UniProt Q9Y5N1); details: Compound concentration 10.0 uM
[36] = molecular target: Histamine H4 receptor (Homo sapiens) (UniProt Q9H3N8); details: Compound concentration 10.0 uM
[37] = molecular target: Alpha-1A adrenergic receptor (Homo sapiens) (UniProt P35348); details: Compound concentration 10.0 uM
[38] = molecular target: Alpha-1B adrenergic receptor (Homo sapiens) (UniProt P35368); details: Compound concentration 10.0 uM
[39] = molecular target: Alpha-2A adrenergic receptor (Homo sapiens) (UniProt P08913); details: Compound concentration 10.0 uM
[40] = molecular target: Alpha-2B adrenergic receptor (Homo sapiens) (UniProt P18089); details: Compound concentration 10.0 uM
Alpha-2B adrenergic receptor (Homo sapiens), sequence (P18089 whole entry): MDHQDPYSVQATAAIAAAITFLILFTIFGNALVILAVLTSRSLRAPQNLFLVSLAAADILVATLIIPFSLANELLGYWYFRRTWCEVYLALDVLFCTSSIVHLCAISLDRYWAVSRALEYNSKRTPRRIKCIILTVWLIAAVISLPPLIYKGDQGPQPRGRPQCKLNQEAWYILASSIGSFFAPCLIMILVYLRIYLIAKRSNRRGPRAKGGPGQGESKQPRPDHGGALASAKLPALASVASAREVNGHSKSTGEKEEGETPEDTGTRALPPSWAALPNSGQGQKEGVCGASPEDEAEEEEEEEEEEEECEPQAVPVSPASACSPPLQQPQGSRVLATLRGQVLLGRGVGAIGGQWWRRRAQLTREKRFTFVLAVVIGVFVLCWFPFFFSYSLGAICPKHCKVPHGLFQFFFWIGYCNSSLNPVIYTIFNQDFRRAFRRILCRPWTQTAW

[41] = molecular target: Alpha-2C adrenergic receptor (Homo sapiens) (UniProt P18825); details: Compound concentration 10.0 uM
[42] = molecular target: Beta-1 adrenergic receptor (Homo sapiens) (UniProt P08588); details: Compound concentration 10.0 uM
[43] = molecular target: Beta-2 adrenergic receptor (Homo sapiens) (UniProt P07550); details: Compound concentration 10.0 uM
[44] = molecular target: Muscarinic acetylcholine receptor M1 (Homo sapiens) (UniProt P11229); details: Compound concentration 10.0 uM
Muscarinic acetylcholine receptor M1 (Homo sapiens), sequence (P11229 whole entry): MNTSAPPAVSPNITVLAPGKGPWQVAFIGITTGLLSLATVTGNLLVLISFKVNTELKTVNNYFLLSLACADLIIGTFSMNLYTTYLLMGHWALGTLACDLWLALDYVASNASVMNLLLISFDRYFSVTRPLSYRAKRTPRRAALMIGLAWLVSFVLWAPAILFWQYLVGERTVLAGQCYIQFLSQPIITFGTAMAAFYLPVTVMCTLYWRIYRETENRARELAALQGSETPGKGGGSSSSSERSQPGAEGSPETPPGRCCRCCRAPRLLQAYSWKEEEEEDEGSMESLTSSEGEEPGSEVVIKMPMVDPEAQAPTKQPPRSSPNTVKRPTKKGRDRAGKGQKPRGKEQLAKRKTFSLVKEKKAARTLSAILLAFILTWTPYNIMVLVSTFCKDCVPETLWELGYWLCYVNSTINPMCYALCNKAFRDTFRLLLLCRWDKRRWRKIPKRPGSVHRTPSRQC

[45] = molecular target: Muscarinic acetylcholine receptor M2 (Homo sapiens) (UniProt P08172); details: Compound concentration 10.0 uM
Muscarinic acetylcholine receptor M2 (Homo sapiens), sequence (P08172 whole entry): as the sequence (P08172 whole entry) above

[46] = molecular target: Muscarinic acetylcholine receptor M3 (Homo sapiens) (UniProt P20309); details: Compound concentration 10.0 uM
Muscarinic acetylcholine receptor M3 (Homo sapiens), sequence (P20309 whole entry, looked up): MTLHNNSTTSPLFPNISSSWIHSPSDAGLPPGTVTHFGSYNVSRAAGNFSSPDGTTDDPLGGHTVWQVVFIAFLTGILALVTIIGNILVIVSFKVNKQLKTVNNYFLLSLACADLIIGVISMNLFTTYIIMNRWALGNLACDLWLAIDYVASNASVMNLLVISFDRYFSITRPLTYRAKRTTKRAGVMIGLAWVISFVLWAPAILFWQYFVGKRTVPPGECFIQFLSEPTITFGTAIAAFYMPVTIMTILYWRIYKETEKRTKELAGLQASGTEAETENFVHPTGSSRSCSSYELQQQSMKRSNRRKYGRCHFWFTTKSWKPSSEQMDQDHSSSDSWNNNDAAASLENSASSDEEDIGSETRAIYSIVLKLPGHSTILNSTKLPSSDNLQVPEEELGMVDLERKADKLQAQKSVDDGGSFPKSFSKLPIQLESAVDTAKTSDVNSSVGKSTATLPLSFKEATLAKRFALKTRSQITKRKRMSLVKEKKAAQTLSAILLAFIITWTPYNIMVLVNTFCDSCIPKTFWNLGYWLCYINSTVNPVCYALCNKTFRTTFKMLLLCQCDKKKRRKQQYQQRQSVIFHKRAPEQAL

[47] = molecular target: Muscarinic acetylcholine receptor M4 (Homo sapiens) (UniProt P08173); details: Compound concentration 10.0 uM
[48] = molecular target: Muscarinic acetylcholine receptor M5 (Homo sapiens) (UniProt P08912); details: Compound concentration 10.0 uM
[49] = molecular target: Beta-3 adrenergic receptor (Homo sapiens) (UniProt P13945); details: Compound concentration 10.0 uM
[50] = molecular target: T5, GABA-A receptor; anion channel (Rattus norvegicus); details: Compound concentration 10.0 uM; remark: listed apart in the source
Rattus norvegicus = species: Rattus norvegicus; details: Compound concentration 10.0 uM
[51] = molecular target: Alpha-1D adrenergic receptor (Homo sapiens) (UniProt P25100); details: Compound concentration 10.0 uM
[52] = molecular target: T3, Sigma intracellular receptor 2; details: Compound concentration 10.0 uM
[53] = molecular target: T4, Sigma non-opioid intracellular receptor 1; details: Compound concentration 10.0 uM
[54] = molecular target: Sodium-dependent noradrenaline transporter (Homo sapiens) (UniProt P23975); details: Compound concentration 10.0 uM
[55] = molecular target: Sodium-dependent dopamine transporter (Homo sapiens) (UniProt Q01959); details: Compound concentration 10.0 uM

T1 sequence (P41595 whole entry): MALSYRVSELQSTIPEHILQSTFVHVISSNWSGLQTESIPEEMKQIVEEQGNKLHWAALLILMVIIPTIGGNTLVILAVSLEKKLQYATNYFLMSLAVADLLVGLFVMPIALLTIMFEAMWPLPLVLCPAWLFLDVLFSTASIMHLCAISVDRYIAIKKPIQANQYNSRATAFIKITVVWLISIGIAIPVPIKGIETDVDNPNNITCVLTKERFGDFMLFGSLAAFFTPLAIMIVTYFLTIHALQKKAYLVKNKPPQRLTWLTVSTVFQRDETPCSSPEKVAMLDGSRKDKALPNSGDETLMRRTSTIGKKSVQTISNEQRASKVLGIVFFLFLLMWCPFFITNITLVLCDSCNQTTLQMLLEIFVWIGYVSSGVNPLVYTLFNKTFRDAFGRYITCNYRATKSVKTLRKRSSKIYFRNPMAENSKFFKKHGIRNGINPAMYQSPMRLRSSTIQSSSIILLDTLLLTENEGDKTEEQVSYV

c1ccc2oc(-c3csc(C4CCN(Cc5nc6ncccc6[nH]5)CC4)n3)cc2c1
Ki ([1]; read-out: Ki): 558 nM
Ki ([1]; read-out: pKi (converted)): 550 nM
Ki ([2]; read-out: Ki): 5460 nM
Ki ([2]; read-out: pKi (converted)): 5370 nM
Ki [3]: 5240 nM
Ki [4]: 3500 nM
Ki ([5]; read-out: Ki): 5470 nM
Ki ([5]; read-out: pKi (converted)): 4420 nM
Ki ([6]; read-out: Ki): 1120 nM
Ki ([6]; read-out: pKi (converted)): 1100 nM
Ki [7]: 1180 nM
Cell Proliferation EC50 [8]: 23 nM
Cell Proliferation EC70 [8]: 48 nM
Cell Proliferation EC50 (MKN-1): 34 nM
Cell Proliferation EC70 (MKN-1): 85 nM
Cell Proliferation EC50 [9]: 65 nM
Cell Proliferation EC70 [9]: 104 nM
Cell Proliferation EC50 (LS174T): 43 nM
Cell Proliferation EC70 (LS174T): 109 nM
Cell Proliferation EC50 [10]: 81 nM
Cell Proliferation EC70 [10]: 147 nM
Cell Proliferation EC50 [11]: 66 nM
Cell Proliferation EC70 [11]: 195 nM
Cell Proliferation EC50 (BG-1 cell line): 142 nM
Cell Proliferation EC70 (BG-1 cell line): 207 nM
Cell Proliferation EC50 (Caco-2): 129 nM
Cell Proliferation EC70 (Caco-2): 209 nM
Cell Proliferation EC50 (SK-MEL-28): 75 nM
Cell Proliferation EC70 (SK-MEL-28): 215 nM
Cell Proliferation EC50 (RKO): 153 nM
Cell Proliferation EC70 (RKO): 251 nM
Cell Proliferation EC50 (LOX IMVI): 126 nM
Cell Proliferation EC70 (LOX IMVI): 335 nM
inhibition [12]: 16.4%
inhibition [13]: 16%
inhibition [14]: 16.9%
inhibition [15]: 30.9%
inhibition [16]: 5.87%
inhibition [17]: 74.5%
inhibition [18]: 20.2%
inhibition [19]: 72.1%
inhibition [20]: 19.9%
inhibition [21]: 72.4%
inhibition [22]: 40.9%
inhibition [23]: -2.56%
inhibition [24]: 5.5%
inhibition [25]: 28.6%
inhibition [26]: 16.5%
inhibition [27]: 5.5%
inhibition [28]: 40.3%
inhibition [29]: 22.4%
inhibition [30]: 22%
inhibition [31]: 21.6%
inhibition [32]: 7.9%
inhibition [33]: 37.4%
inhibition [34]: 14.8%
inhibition [35]: -4.94%
inhibition [36]: 2.33%
inhibition [37]: 15.5%
inhibition [38]: 35.7%
inhibition [39]: 32.1%
inhibition [40]: 28.7%
inhibition [41]: 53.4%
inhibition [42]: 20.9%
inhibition [43]: 25.4%
inhibition [44]: 1.7%
inhibition [45]: 54.2%
inhibition [46]: -0.2%
inhibition [47]: -4.61%
inhibition [48]: -7.72%
inhibition [49]: 11.7%
inhibition [50]: 48.3%
inhibition (Rattus norvegicus): 20.2%
inhibition [51]: 9.84%
inhibition [52]: 78.1%
inhibition [53]: 55.4%

Cn1c(-c2csc(C3CCN(CC4=NC5N=CC=CC5N4)CC3)n2)nc2ccccc21 (configuration not stated) [BAY-070]
Ki ([1]; read-out: Ki): 1580 nM
Ki ([1]; read-out: pKi (converted)): 1510 nM
Ki ([6]; read-out: Ki): 152 nM
Ki [7]: 1290 nM
inhibition [12]: 10.2%
inhibition [13]: 4.71%
inhibition [14]: -0.96%
inhibition [16]: -4.2%
inhibition [17]: 72%
inhibition [18]: 8.59%
inhibition [19]: 45.1%
inhibition [20]: 16.2%
inhibition [21]: 31.4%
inhibition [22]: 10.1%
inhibition [24]: 44.6%
inhibition [25]: 47.6%
inhibition [26]: 44%
inhibition [27]: 5.35%
inhibition [28]: 7.08%
inhibition [54]: -3.53%
inhibition [55]: -1.09%
inhibition [29]: 9.54%
inhibition [30]: 3.76%
inhibition [31]: 18.1%
inhibition [33]: 0.44%
inhibition [34]: 1.91%
inhibition [35]: -7.57%
inhibition [36]: -9.17%
inhibition [37]: 6.33%
inhibition [38]: 7.64%
inhibition [39]: 27.1%
inhibition [40]: 22%
inhibition [41]: 19.9%
inhibition [42]: 19.9%
inhibition [43]: 23%
inhibition [44]: 43.4%
inhibition [45]: 10.1%
inhibition [46]: 16.1%
inhibition [47]: 14.7%
inhibition [48]: 13.5%
inhibition [49]: 19.5%
inhibition [50]: -6.05%
inhibition (Rattus norvegicus): 13.7%
inhibition [51]: 14.4%
inhibition [52]: 98%
inhibition [53]: 80%
